According to patent publication US20260256811A1, “Humoral Immune Activators for the Treatment of Humoral Immunosuppressed Pathologies, Cancer and Infectious Disease and Humoral Immune Suppressors for the Treatment of Inflammatory Diseases” (Navrogen, Inc., priority 2022, published 2026):

Legend:
[1] = Metabolic stability in human liver microsomes; assay type: in vitro ADME; details: human, microsomes
Experimental: (§1) We next tested Compounds 2, 26, 27 and 33 for metabolic stability using human and mouse microsomes. For each test compound, samples were diluted a final concentration of 2 μg/mL in 25 mM potassium phosphate buffer with liver microsomes of each species at a final concentration of 0.5 mg/mL. The enzyme reaction was initiated by the addition of NADPH reagent at a final concentration of 1 mM. For negative control samples, NADPH reagent was not added. Samples were incubated at 37° C. on a 50-RPM orbital shaker, and an aliquot was removed at pre-determined timepoints at 0, 5, 10, 15, 30, and 60 minutes. Samples were then precipitated with three volume of acetonitrile containing propranolol as an internal standard, and centrifuged for 10 min at 2000 g then analyzed by LC/MS/MS. Note that compounds undergo only Phase I metabolism in liver microsomes in the presence of NADPH cofactors. Data interpretation of results are based on percent parent compound remaining relative to 0-minute incubation samples, from which the elimination half-life is calculated based on the natural log of % compound remaining vs. time plot. The following parameters were calculated to estimate the compound's in vitro metabolic stability: Cmp=concentration of microsomal proteins (mg/mL); t1/2=the half-life (min), where t1/2 is equal to 0.693/slope; CLint=the intrinsic hepatic clearance (μL/min/mg), where CLint is equal to 0.693/(t1/2×Cmp).

[2] = tested on: CD16a FcR; assay: Cytokine and granzyme ELISA on supernatants of primary human effector cells; assay type: cell-based
Experimental: (§2) Briefly, 5,000 human breast carcinoma (SKBR3 or OE19) or OV-CD20 target cells were plated in black 96-well microplates in R7.5 media for 48 hours. Wells were washed and 50,000 PBMC, NK or SPL effector cells were added in R1 assay media with or without a targeting test antibody and 25 or 50 μM of Compound 2. Vehicle is the solvent that Compound 2 is dissolved in. For assays employing SKBR3 human breast cancer or OE19 esophageal adenocarcinoma cell lines, 2.5 μg/mL of the HER2-targeting trastuzumab test antibody was used for ADCC assays. For OV-CD20 assays, 2.5 μg/mL of the CD20-targeting rituximab test antibody was used for ADCC assays. Cultures were incubated for 24 hours at 37° C. in 5% CO2 in triplicate. After incubation, culture supernatants were harvested for cytokine analysis and wells were washed with phosphate buffered saline and adhered target cell viability was quantified via Cell Titer-GLO (Promega) using a Varioskan plate reader. […] ADCC data was graphed as percent killing of antibody treated with Compound 2 or vehicle vs. cultures not treated with antibody. […] AICC results were graphed as percent killing by Compound 2 vs vehicle only treated cultures. […] Experiments represent a minimum of triplicate wells.

[3] = Metabolic stability in mouse liver microsomes; assay type: in vitro ADME; details: mouse, microsomes
Experimental: as §1

[4] = tested on: SKBR3, OE19 or OV-CD20 target cells; assay: ADCC by human PBMC and NK effector cells against tumor target cells; assay type: cell-based; details: 25 or 50 μM plus 2.5 μg/mL trastuzumab or rituximab, 24 hours; vs antibody alone (vehicle)
Experimental: as §2

[5] = Tolerability and serum TNFα in athymic nude mice, i.v. dosing; assay type: in vivo
Experimental: To determine the ability of Compound 2 to activate immune-effector cells in vivo, we administered 7 mg/kg of Compound 2 or similar volumes of vehicle (ethanol) daily for 5 days (day 1-5) and isolated total serum on day 11 to measure for immune-effector cell activation markers. […] Experiments represent a minimum of triplicate wells.

[6] = tested on: SARS-COV-2 virus; assay: Viability of human PBMCs exposed to SARS-COV-2 virus; assay type: cell-based; details: Severe acute respiratory syndrome coronavirus 2, PBMC, 72 h, read-out: PBMC viability after SARS-COV-2 exposure
Excerpt: NK cells have been previously reported to be capable of killing virally infected cells (Bjorkstrom N K, et al. Nat Reviews Immunol 22:112-123, 2022). In particular, previous studies have shown that the SARS-COV-2 virus can infect human PBMCs and this infection can be lethal to overall PBMC survival (Manunta MDI, et al. Scientific Reports 11:4904-4916, 2021). To test the ability of CD16a FcR activating small molecular weight agents described here to activate effector cells within PBMCs that in turn can kill virally infected PBMC sib cells and reduce viral load, Compound 2 was tested against human PBMCs exposed to SARS-COV-2 virus. Briefly, IL2-activated PBMCs grown in RPMI media with 10% heat inactivated FBS (R10) were plated at 100,000 cells/well in 96 well U-bottom microplates. Next, […] viral titers (previously determined by plaque forming units, PFU) were added to appropriate wells with or without 25 μM of Compound 2. Cultures were incubated for 72 hours at 37° C. in 5% CO2. Plates were centrifuged and supernatants collected for future cytokine and viral titer analysis. Cells were resuspended in RPMI plus 10% FBS, transferred to 96-well black microplates and tested for viability using Cell Titer-Glo (Promega) and read for viability on a 96-well microplate reader. […] Experiments represent a minimum of triplicate wells.

[7] = tested on: tumor target cells; assay: ADCC and cytokine production by mouse splenocyte (SPL) effector cells; assay type: cell-based; details: 25 or 50 μM plus targeting antibody, 24 hours; vs antibody alone (vehicle)
Experimental: as §2

[8] = target: T1, CD16a-158F FcR (Homo sapiens, UniProt P08637); assay: Jurkat-CD16a-158F-luciferase (JKT-CD16a) reporter bioassay; assay type: cell-based
T1 construct: host or cells: Jurkat (JKT-CD16a luciferase reporter line)

[9] = tested on: CD16a FcR; assay: Cytokine ELISA on culture media of JKT-CD16a and parental Jurkat cells; assay type: cell-based, human; details: 10 μM, 18 hours, ELISA of supernatant
[10] = tested on: OV-CD20 tumor cells; assay: AICC by human primary NK cells; assay type: cell-based; details: absence of antibody, vs vehicle
Experimental: as §2

T1 sequence (P08637 17-254): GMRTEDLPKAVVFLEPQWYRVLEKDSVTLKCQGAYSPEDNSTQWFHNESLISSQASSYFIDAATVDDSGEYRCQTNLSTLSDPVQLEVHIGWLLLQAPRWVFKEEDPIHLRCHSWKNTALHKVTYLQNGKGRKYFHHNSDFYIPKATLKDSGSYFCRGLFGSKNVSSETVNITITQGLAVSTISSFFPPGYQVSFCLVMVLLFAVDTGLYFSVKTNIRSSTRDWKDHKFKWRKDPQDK
T1 sequence (P20963 22-164 partner): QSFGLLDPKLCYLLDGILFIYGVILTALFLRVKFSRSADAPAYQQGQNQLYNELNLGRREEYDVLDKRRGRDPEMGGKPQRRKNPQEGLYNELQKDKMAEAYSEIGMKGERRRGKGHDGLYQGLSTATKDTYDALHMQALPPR

CC(C)=CCC[C@@H](C)[C@H]1CC[C@@]2(C)C3CC[C@H]4C(C)(C)[C@@H](O)CC[C@@]45C[C@@]35CC[C@]12C (some centres unmarked) [Compound 2]
half-life at 2 μg/mL [1]: 1.18 h
microsomal CLint at 2 μg/mL [1]: 19.7 µL/min/mg
TNFα, IFNγ, GM-CSF and granzyme B production by NK cells ([2]; absence of antibody, ELISA of supernatants): produced and secreted
time of exposure to activation and cytokine production ([2]; time course analysis): ≤ 30 min
half-life at 2 μg/mL [3]: 1.88 h
microsomal CLint at 2 μg/mL [3]: 12.3 µL/min/mg
human (PBMC and NK cells) effector cell killing of target cells through ADCC [4]: enhance
serum TNFα ([5]; 7 mg/kg i.v. daily day 1-5, serum on day 11, ELISA, vehicle cohort 11 μg/mL): 298 µg/mL
tolerability by lack of body weight loss ([5]; 7 mg/kg i.v. daily for 5 days, athymic nude mice): well tolerated
tolerable dose, daily i.v. dosing ([5]; athymic nude mice): at least 7 mg/kg
viability at 25 µM [6]: 100%
mouse (SPL cells) effector cell killing of target cells through ADCC [7]: enhance
JKT-CD16a activation (luciferase RLU) in the presence of IgG ([8]; OV-CD20 target cells plus 2.5 μg/mL rituximab, 12-18 hours, vs vehicle or no compound): significant enhancement
JKT-CD16a-158F FcR activation (luciferase RLU) in the absence of IgG antibody ([8]; OV-CD20 target cells without antibody, lower levels than with IgG): stimulated
IFNγ and TNFα production by JKT-CD16a-158F cells [9]: both cytokines were produced
IFNγ and TNFα production by parental Jurkat cells (CD16a-null) [9]: little to no cytokine production
NK cell killing of OV-CD20 tumor cells via AICC [10]: enabled NK cell killing of OV-CD20 tumor cells
